Data on four compounds can be found in patent US20230051263A1, “DEVICE FOR RAPID AND QU[…] OF DRUGS OF ABUSE IN SWEAT” (THE REGENTS OF THE UNIVERSITY OF MICHIGAN, priority 2020, published 2023).

Type in all cases: binding
One test has as its system methadone antibody. The test is described as follows: Cross-reactivity of methadone sensor (capillary competitive chemiluminescent ELISA). The following applies: target analyte methadone; challenging analyte in sweat 1.6-10,000 ng/mL vs methadone-HRP 2000x; IC50 ratio Eq. (1). The source says:
(§1) In order to develop a sensor array that can quantify the presence of multiple analytes simultaneously, it is important to examine their cross-reactivity. Using the methadone as an example, methadone was the target analyte and channels of the capillary sensor were first coated with methadone antibody. After blocking, serial concentrations of the challenging analytes, METH, amphetamine, or THC, were individually mixed with methadone-HRP and withdrawn into the capillaries. The challenging analyte molecules (e.g., METH) competed with methadone-HRP for the methadone antibody coated on the capillary surface. Cross-reactivity is calculated as follows: […]
(§2) In order to perform multiplexed detection of drugs in sweat, first the cross-reactivity of the capillary-based sensors is examined. The capillary coated with the antibody intended for detecting one particular drug (i.e., target analyte) is challenged with various concentrations of the other three drugs (i.e., challenging analytes). Here, the concentrations of 10,000 ng/mL, 5,000 ng/mL, 400 ng/mL, 80 ng/mL, and 1.6 ng/mL for the challenging analytes in sweat are used. […] One exception is the 3.1% cross-reactivity of METH sensor to amphetamine, which is due to the structural similarities between METH and amphetamine.
(§3) The final concentration of competing drug conjugates was 2000×, 4000×, 15000×, and 4000× for methadone-HRP, METH-HRP, amphetamine-HRP, and THC-HRP, respectively, in corresponding sensors.
Background: ELISA stands for enzyme-linked immunosorbent assay.

The test system of test [1] is tetrahydrocannabinol antibody. The test is described as follows: Cross-reactivity of THC sensor (capillary competitive chemiluminescent ELISA). The following applies: target analyte THC; challenging analyte in sweat 1.6-10,000 ng/mL vs THC-HRP 4000x; IC50 ratio Eq. (1).
Description: as §1, §2, §3

A further test concerns methamphetamine antibody. Nature of the test: Cross-reactivity of METH sensor (capillary competitive chemiluminescent ELISA). The note with it: target analyte METH, challenging analyte in sweat 1.6-10,000 ng/mL vs METH-HRP 4000x, IC50 ratio Eq. (1).
Description: as §1, §2, §3

Test [2] relates to corresponding antibody coated on capillary inner surface. The test is described as follows: Detection of individual drugs in artificial sweat, inhibition curves (capillary competitive chemiluminescent ELISA). The note with it: y = a + b/(1+(x/x0)^p), x in ng/mL; used as calibration curve.
A further test deals with amphetamine antibody. The test is described as follows: Cross-reactivity of amphetamine sensor (capillary competitive chemiluminescent ELISA). The note with it: target analyte amphetamine; challenging analyte in sweat 1.6-10,000 ng/mL vs amphetamine-HRP 15000x; IC50 ratio Eq. (1).
Description: as §1, §2, §3

As to `CC(N)Cc1ccccc1` (stereo not shown) [Amphetamine, amphetamine], the “Cross-reactivity (100%)” value is below 0.001% in the test on methadone antibody, below 0.4% in test [1], 3.1% in the test on methamphetamine antibody and 3.1% in the test with methamphetamine antibody (listed as amphetamine). In addition, the “midpoint parameter of logistic fit of inhibition curve B/B0 (%)” value in test [2] came to 1473.04 ng/mL.

On to `CN[C@@H](C)Cc1ccccc1` [METH, methamphetamine], for which the “Cross-reactivity (100%)” value in the test on methadone antibody is reported as below 0.001%; in test [1], below 0.4%; with amphetamine antibody it was 0.07%. Also, in test [2], the “midpoint parameter of logistic fit of inhibition curve B/B0 (%)” value turned out to be 7.63 ng/mL.

For `CCC(=O)C(CC(C)N(C)C)(c1ccccc1)c1ccccc1` (stereo not shown) [Methadone, methadone], the “Cross-reactivity (100%)” value in test [1] is given as below 0.4%; in the test on methamphetamine antibody, below 0.04%; with amphetamine antibody it was below 0.02%.

For the compound `CCCCCc1cc(O)c2c(c1)OC(C)(C)[C@@H]1CCC(C)=C[C@@H]21` [THC, tetrahydrocannabinol], the “Cross-reactivity (100%)” value with methadone antibody was below 0.001%; with methamphetamine antibody, below 0.04%; in the test with amphetamine antibody, below 0.02%. Also, the “midpoint parameter of logistic fit of inhibition curve B/B0 (%)” value in test [2] came out at 5.95 ng/mL.
